PMC7481839, “Switchable foldamer ion channels with antibacterial activity” (Chemical Science, 2020)
Where a SMILES comes first, the peptide text is derived from it.

Experiment: Planar bilayer conductance (PBC) studies
Type: biochemical
Settings: +100 or –100 mV, 50 s sweeps, up to 2 h, final concentration 8.3 µM, 20 mM MOPS, 100 mM NaCl or KCl, pH 7.4
Experimental: The observation of discrete conductance events can indicate channel formation and provide information on the nature of these channels.
PBC experiments were performed in a custom-built cell, with either 2 or Cu(II)[2]Cl2 (5–10 μL of a 1 mM solution in MeOH) added to the ground well. Characterisation sweeps were continued for 2 h, or until substantial channel-forming activity was observed. Single channel experiments were conducted under an applied potential of +100 or –100 mV in 50 s sweeps. […] Large current levels and reproducible well-defined quantized steps from 0.5 to 5 ms in duration (similar to the “flicker” behaviour described by Chui and Fyles[42]) were measured (Fig. 6). […] This could imply [Cu(II)[2]Cl]^+ cations[44] are involved in the channel-forming species. Channel events have multilevel conductances, both at +100 mV (∼0.08 nS, ∼0.14 nS) and at –100 mV potentials (∼0.08 nS, ∼0.15 nS).
The blue product from the addition of CuCl to 2 was also assessed using PBC experiments. […] In addition, much longer lived “square topped” openings could also be observed (Fig. 6b). These very regular well-defined quantized current steps were open for up to 20 ms at +100 mV, with multiple stepwise increases in conductance with ∼0.18 nS increments.[46] […]

SMILES: CC(C)(NC(=O)C(C)(C)NC(=O)C(C)(C)NC(=O)C(C)(C)NC(=O)C(C)(C)n1cc(CN(Cc2ccccn2)Cc2ccccn2)nn1)C(=O)NC(C)(C)C(=O)NC(C)(C)C(=O)NC(C)(C)C(=O)OCC[Si](C)(C)C [foldamer 2] (HELM PEPTIDE1{[CC(C)(C(=O)[*:2])n1cc(CN(Cc2ccccn2)Cc2ccccn2)nn1].[Aib].[Aib].[Aib].[Aib].[Aib].[Aib].[Aib].[C[Si](C)(C)CCO[*:1]]}$$$$V2.0)
- ion channel behaviour in PBC: did not display any ion channel behaviour
